In US20240401073A1, “ALS INHIBITOR HERBICIDE TOLERANT BETA VULGARIS MUTANTS” (KWS SAAT SE & Co. KGaA, priority 2021, published 2024):

Experiments:
[1] = test system: heterozygous BvALS_D371E mutants; type: in vivo, Beta vulgaris (sugar beet); conditions: greenhouse, 1× recommended field application concentration, treated when first true leaves appeared, rated 14 days after treatment; growing of first pair of true leaves as indicator
Text: (§1) The identified ALS mutants have been tested repeatedly in CONVISO® ONE treatments in concentrations used for field treatments as well as in treatment with the individual active ingredients of CONVISO® ONE, Foramsulfuron and Thiencarbazon-methyl, treatment with Pulsar® 40 (active ingredient: Imazamox), treatment with active ingredient Bispyribac, and treatment with Broadway® (active ingredients: Florasulam, Pyroxylam) (Table 1). All herbicide treatments has been conducted with amount corresponding to 1× recommended field application concentration: Offspring seed of both, a plant homozygous and heterozygous for BvALS_D371E mutation as well as the M0-background genotype were sown, cultivated in a greenhouse and transplanted to single pots after emergence. Herbicide treatments were performed when first true leaves appeared.
(§2) Tolerance ratings were taken 14 days after treatment. Growing of the first pair of true leaves was used as indicator for herbicide tolerance.

[2] = test system: homozygous BvALS_D371E mutants; type: in vivo, Beta vulgaris (sugar beet); conditions: greenhouse, 1× recommended field application concentration, treated when first true leaves appeared, rated 14 days after treatment; growing of first pair of true leaves as indicator
Text: as §1, §2

[3] = test system: sugar beet mutant line carrying W569L; conditions: WO 2012/049268; cited from earlier work

Structure (SMILES)	Herbicide tolerance, Heterozygous mutants [1]	Herbicide tolerance, Homozygous mutants [2]	herbicide tolerance of W569L mutant line [3]
COc1cc(OC)nc(Oc2cccc(Oc3nc(OC)cc(OC)n3)c2C(=O)O)n1 [Bispyribac]	tolerant	Tolerant	–
COc1cc(OC)nc(NC(=O)NS(=O)(=O)c2cc(NC=O)ccc2C(=O)N(C)C)n1 [foramsulfuron]	tolerant	Tolerant	tolerant
COC(=O)c1csc(C)c1S(=O)(=O)NC(=O)n1nc(OC)n(C)c1=O [thiencarbazone-methyl]	tolerant	Tolerant	tolerant
